A word on the pIC50: it is −log10 of the IC50, conventionally taken in molar units. A low value points to a high IC50. The term melting point denotes the temperature, or range, at which the solid turns liquid.

SMILES strings stand for the structures. pIC50: −log10 of the molar value.

Series [1] relates to HDACs (HeLa cell nuclear extracts). Kind of series: HDAC enzymatic activity, Biomol Color de Lys system. The note with it: 1 hour, 25° C. The class given is biochemical. Put shortly:
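IC50 from sigmoidal fit of developer-terminated fluorescence (ex 350-380/em 440-460 nm). Reaction: 1 h at room temperature (25 °C), HeLa nuclear extract as HDAC source, artificial substrate, buffer of 50 mM Tris/Cl pH 8.0 with 137 mM NaCl, 2.7 mM KCl and 1 mM MgCl2.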

For the next series, the target named is T1, PI3Kα (p110α/p85α) (Homo sapiens, UniProt P42336).
T1 construct: GST (N); made in house; host or cells: Baculovirus-infected Sf9 cells
T1 sequence (P42336 whole entry): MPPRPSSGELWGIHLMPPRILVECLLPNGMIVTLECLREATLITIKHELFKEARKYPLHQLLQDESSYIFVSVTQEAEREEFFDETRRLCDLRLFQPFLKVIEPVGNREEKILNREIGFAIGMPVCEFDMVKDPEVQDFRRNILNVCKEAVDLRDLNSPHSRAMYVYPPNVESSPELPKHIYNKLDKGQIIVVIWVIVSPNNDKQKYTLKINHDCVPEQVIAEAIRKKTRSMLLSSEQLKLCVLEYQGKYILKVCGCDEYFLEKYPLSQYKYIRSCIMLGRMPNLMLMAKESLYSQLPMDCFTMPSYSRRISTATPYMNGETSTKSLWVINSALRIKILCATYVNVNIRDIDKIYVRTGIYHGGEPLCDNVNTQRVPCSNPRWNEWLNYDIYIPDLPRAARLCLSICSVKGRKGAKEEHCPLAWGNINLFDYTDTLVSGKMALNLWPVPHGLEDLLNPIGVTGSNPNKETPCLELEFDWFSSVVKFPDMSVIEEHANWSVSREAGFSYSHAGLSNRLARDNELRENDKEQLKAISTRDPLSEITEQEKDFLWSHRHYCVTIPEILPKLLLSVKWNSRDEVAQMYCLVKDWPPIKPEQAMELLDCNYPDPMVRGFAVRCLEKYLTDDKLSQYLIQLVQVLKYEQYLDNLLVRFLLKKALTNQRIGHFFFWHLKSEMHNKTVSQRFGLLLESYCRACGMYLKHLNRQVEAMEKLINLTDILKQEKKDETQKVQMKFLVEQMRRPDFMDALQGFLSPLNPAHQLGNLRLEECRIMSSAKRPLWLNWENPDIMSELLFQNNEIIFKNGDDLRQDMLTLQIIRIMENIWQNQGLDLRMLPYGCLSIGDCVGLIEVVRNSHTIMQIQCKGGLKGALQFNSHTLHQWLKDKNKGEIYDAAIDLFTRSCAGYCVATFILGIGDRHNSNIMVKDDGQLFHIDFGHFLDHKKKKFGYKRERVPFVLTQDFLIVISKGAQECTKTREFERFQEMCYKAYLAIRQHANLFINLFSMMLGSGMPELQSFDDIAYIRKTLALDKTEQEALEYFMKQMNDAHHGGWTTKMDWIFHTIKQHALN
T1 sequence (P27986 whole entry partner): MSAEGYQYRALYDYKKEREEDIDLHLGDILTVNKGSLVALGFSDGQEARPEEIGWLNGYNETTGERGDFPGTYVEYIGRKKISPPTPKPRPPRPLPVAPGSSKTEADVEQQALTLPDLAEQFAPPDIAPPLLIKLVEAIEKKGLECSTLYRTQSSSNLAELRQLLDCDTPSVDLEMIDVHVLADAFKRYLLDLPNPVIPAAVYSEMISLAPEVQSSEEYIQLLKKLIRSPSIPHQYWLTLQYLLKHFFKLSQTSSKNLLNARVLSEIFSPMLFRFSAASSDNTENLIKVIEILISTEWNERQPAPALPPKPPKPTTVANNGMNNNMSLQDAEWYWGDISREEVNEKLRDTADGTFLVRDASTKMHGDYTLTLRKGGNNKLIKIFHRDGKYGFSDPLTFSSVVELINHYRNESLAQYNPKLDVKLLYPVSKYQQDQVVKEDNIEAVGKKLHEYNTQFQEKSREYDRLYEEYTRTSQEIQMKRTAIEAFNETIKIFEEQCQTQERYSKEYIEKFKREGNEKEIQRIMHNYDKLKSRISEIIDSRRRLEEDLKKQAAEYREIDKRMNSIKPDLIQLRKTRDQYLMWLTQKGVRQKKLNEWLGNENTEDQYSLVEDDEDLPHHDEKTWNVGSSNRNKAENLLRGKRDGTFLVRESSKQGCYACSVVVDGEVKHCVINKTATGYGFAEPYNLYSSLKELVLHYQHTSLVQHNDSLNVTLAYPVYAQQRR
Briefly: PI3Kα ADP-Glo assay. The note with it: 20 μM PIP2, 10 μM ATP, 30 minutes. The class given is biochemical. An outline of the steps: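 Luminescent ADP-Glo detection, after depletion of residual ATP, quantified ADP made by PI3Kα phosphorylating 20 μM PIP2 at 10 μM ATP. The kinase step ran 30 min at room temperature in HEPES pH 7.4 with MgCl2, DTT and orthovanadate, using baculovirus/Sf9-expressed full-length p110α/p85α complex.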

`CS(=O)(=O)N1CCN(Cc2cc3nc(-c4cccc5[nH]ncc45)nc(N4CCN(CCCCC(=O)NO)CC4)c3s2)CC1` [Compound 30, 5-(4-(2-(1H-indazol-4-yl)-6-((4-(methylsulfonyl)piperazin-1-yl)methyl)thieno[3,2-d]pyrimidin-4-yl)piperazin-1-yl)-N-hydroxypentanamide]: the melting point lay in the range of 142 to 145 °C. The same molecule had a pIC50 in series [1] of 6.00 to 7.00. The molecule also showed a negative-log IC50 (pIC50) against PI3Kα (p110α/p85α) of under 5.00.
With `CN(Cc1cc2nc(-c3cc[nH]c3)nc(N3CCOCC3)c2s1)c1ncc(C(=O)NO)cn1` [Compound 197, N-hydroxy-2-(methyl((4-morpholino-2-(1H-pyrrol-3-yl)thieno[3,2-d]pyrimidin-6-yl)methyl)amino)pyrimidine-5-carboxamide], the melting point lay within 175 to 189 °C. Also, the pIC50 in series [1] is over 7.00. Also, the negative logarithm of the IC50 (pIC50) on PI3Kα (p110α/p85α) was over 7.00.
Molecule `CCOc1ccc(-c2nc(N3CCOCC3)c3sc(CN(C)c4ncc(C(=O)NO)cn4)cc3n2)cn1` [Compound 255, 2-(((2-(6-ethoxypyridin-3-yl)-4-morpholinothieno[3,2-d]pyrimidin-6-yl)methyl)(methyl)amino)-N-hydroxypyrimidine-5-carboxamide] yielded a melting point of 162 to 165 °C. In addition, in series [1], the pIC50 is over 7.00. Besides, the negative-log IC50 (pIC50) at PI3Kα (p110α/p85α) is over 7.00.
With `O=C(NO)c1ccc(NCc2cc3nc(-c4cccc5[nH]ncc45)nc(N4CCOCC4)c3s2)cc1` [Compound 78, 4-((2-(1H-indazol-4-yl)-4-morpholinothieno[3,2-d]pyrimidin-6-yl)methylamino)-N-hydroxybenzamide], the melting point was in the range of 180 to 183 °C. For the same molecule, in series [1], the pIC50 was over 7.00. In addition, the pIC50 at PI3Kα (p110α/p85α) is 6.00 to 7.00.
`CN(Cc1cc2nc(-c3ccc(Cl)cc3)nc(N3CCOCC3)c2s1)c1ncc(C(=O)NO)cn1` [Compound 147, 2-(((2-(4-chlorophenyl)-4-morpholinothieno[3,2-d]pyrimidin-6-yl)methyl)(methyl)amino)-N-hydroxypyrimidine-5-carboxamide] showed a melting point of 153 °C. This molecule gave a pIC50 in series [1] of over 7.00. The molecule also had a negative-log IC50 (pIC50) against PI3Kα (p110α/p85α) of under 5.00.
In turn, `CN(Cc1cc2nc(-c3cccc(N)c3)nc(N3CCOCC3)c2s1)c1ncc(C(=O)NO)cn1` [Compound 134, 2-(((2-(3-aminophenyl)-4-morpholinothieno[3,2-d]pyrimidin-6-yl)methyl)(methyl)amino)-N-hydroxypyrimidine-5-carboxamide] gave a melting point of 179 to 182 °C. Moreover, the pIC50 in series [1] was over 7.00. This molecule showed a pIC50 on PI3Kα (p110α/p85α) of 6.00 to 7.00.
The matching figures for `CN(Cc1cc2nc(-c3ccc(N)c(Cl)c3)nc(N3CCOCC3)c2s1)c1ncc(C(=O)NO)cn1` [Compound 275, 2-(((2-(4-Amino-3-chlorophenyl)-4-morpholinothieno[3,2-d]pyrimidin-6-yl)methyl)(methyl)amino)-N-hydroxypyrimidine-5-carboxamide]: 241 to 246 °C, over 7.00 and 6.00 to 7.00.
On the same counts, the results for `CN(Cc1cc2nc(-c3ccc(N)c([N+](=O)[O-])c3)nc(N3CCOCC3)c2s1)c1ncc(C(=O)NO)cn1` [Compound 278, 2-(((2-(4-Amino-3-nitrophenyl)-4-morpholinothieno[3,2-d]pyrimidin-6-yl)methyl)(methyl)amino)-N-hydroxypyrimidine-5-carboxamide] are 202 to 206 °C, over 7.00 and over 7.00.
In the case of `CC(C)c1ccc(-c2nc(N3CCOCC3)c3sc(CN(C)c4ncc(C(=O)NO)cn4)cc3n2)cc1` [Compound 148, N-hydroxy-2-(((2-(4-isopropylphenyl)-4-morpholinothieno[3,2-d]pyrimidin-6-yl)methyl)(methyl)amino)pyrimidine-5-carboxamide], the melting point was 155 °C (dec.). Besides, the pIC50 in series [1] was over 7.00. This molecule also gave a pIC50 against PI3Kα (p110α/p85α) of under 5.00.
The matching figures for `O=C(CCCNCc1cc2nc(-c3cccc4[nH]ncc34)nc(N3CCOCC3)c2s1)NO` [Compound 41, 4-((2-(1H-indazol-4-yl)-4-morpholinothieno[3,2-d]pyrimidin-6-yl)methylamino)-N-hydroxybutanamide]: 149 to 152 °C, over 7.00 and 6.00 to 7.00.
`CN(CCCCCC(=O)NO)Cc1cc2nc(-c3cccc4[nH]ncc34)nc(N3CCOCC3)c2s1` [Compound 103, 6-(((2-(1H-indazol-4-yl)-4-morpholinothieno[3,2-d]pyrimidin-6-yl)methyl)(methyl)amino)-N-hydroxyhexanamide] came in with a melting point of 115 to 118 °C. In series [1], this molecule showed a negative-log IC50 (pIC50) of over 7.00. On PI3Kα (p110α/p85α), this molecule had a pIC50 of 6.00 to 7.00.
The matching figures for `Nc1ncc(-c2nc(N3CCOCC3)c3sc(NCCCCCCC(=O)NO)cc3n2)cn1` [Compound 234, 7-[2-(2-Amino-pyrimidin-5-yl)-4-morpholin-4-yl-thieno[3,2-d]pyrimidin-6-ylamino]-heptanoic acid hydroxyamide]: 235 to 240 °C, over 7.00 and over 7.00.
For the molecule `Nc1ncc(-c2nc(N3CCOCC3)c3sc(NCCCCC(=O)NO)cc3n2)cn1` [Compound 226], the melting point fell in the range of 175 to 180 °C. In addition, the pIC50 in series [1] was over 7.00. The negative-log IC50 (pIC50) against PI3Kα (p110α/p85α) is over 7.00.
On to `CNc1ccc(-c2nc(N3CCOCC3)c3sc(S(=O)(=O)NCC4CCN(c5ncc(C(=O)NO)cn5)CC4)cc3n2)cn1` [Compound 310, N-Hydroxy-2-(4-((2-(6-(methylamino)pyridin-3-yl)-4-morpholinothieno[3,2-d]pyrimidine-6-sulfonamido)methyl)piperidin-1-yl)pyrimidine-5-carboxamide], for which the melting point is 190 to 197 °C. The same molecule showed a negative logarithm of the IC50 (pIC50) in series [1] of over 7.00. Also, at PI3Kα (p110α/p85α), the pIC50 was over 7.00.
In turn, `CN(Cc1cc2nc(-c3ccc(N)cc3F)nc(N3CCOCC3)c2s1)c1ncc(C(=O)NO)cn1` [Compound 283, 2-{[2-(4-Amino-2-fluoro-phenyl)-4-morpholin-4-yl-thieno[3,2-d]pyrimidin-6-ylmethyl]-methyl-amino}-pyrimidine-5-carboxylic acid hydroxyamide] displayed a melting point of 195 to 197 °C. For the same molecule, in series [1], the pIC50 is over 7.00. Further, the pIC50 against PI3Kα (p110α/p85α) was 6.00 to 7.00.
`CN(Cc1cc2nc(-c3ccc(N)c(F)c3)nc(N3CCOCC3)c2s1)c1ncc(C(=O)NO)cn1` [Compound 276, 2-(((2-(4-Amino-3-fluorophenyl)-4-morpholinothieno[3,2-d]pyrimidin-6-yl)methyl)(methyl)amino)-N-hydroxypyrimidine-5-carboxamide] showed a melting point of 203 to 206 °C. The molecule also had a pIC50 in series [1] of over 7.00. At PI3Kα (p110α/p85α), this molecule gave a negative logarithm of the IC50 (pIC50) of over 7.00.
Consider `CCCCN(Cc1cc2nc(-c3cccc4[nH]ncc34)nc(N3CCOCC3)c2s1)c1ncc(C(=O)NO)cn1` [Compound 85, 2-(((2-(1H-indazol-4-yl)-4-morpholinothieno[3,2-d]pyrimidin-6-yl)methyl)(butyl)amino)-N-hydroxypyrimidine-5-carboxamide], for which the melting point was in the range of 234 to 236 °C. The pIC50 in series [1] is over 7.00. On PI3Kα (p110α/p85α), this molecule had a negative logarithm of the IC50 (pIC50) of 6.00 to 7.00.
On to `COc1ccc(-c2nc(N3CCOCC3)c3sc(NS(=O)(=O)c4ccc(/C=C/C(=O)NO)cc4)cc3n2)cn1` [Compound 222, N-Hydroxy-3-{4-[2-(6-methoxy-pyridin-3-yl)-4-morpholin-4-yl-thieno[3,2-d]pyrimidin-6-ylsulfamoyl]-phenyl}-acrylamide], for which the melting point was over 300 °C. This molecule also showed a pIC50 in series [1] of over 7.00. In addition, the negative logarithm of the IC50 (pIC50) at PI3Kα (p110α/p85α) is 6.00 to 7.00.
The matching figures for `O=C(CCCCCN1CCN(Cc2cc3nc(-c4cccc5[nH]ncc45)nc(N4CCOCC4)c3s2)CC1)NO` [Compound 12]: 123 to 124 °C, 6.00 to 7.00 and over 7.00.
Take `CN(C)c1ccc(-c2nc(N3CCOCC3)c3sc(CN(C)c4ncc(C(=O)NO)cn4)cc3n2)cn1` [Compound 114, 2-(((2-(6-(dimethylamino)pyridin-3-yl)-4-morpholinothieno[3,2-d]pyrimidin-6-yl)methyl)(methyl)amino)-N-hydroxypyrimidine-5-carboxamide]: the melting point lay in the range of 190 to 195 °C. In series [1], this molecule had a negative-log IC50 (pIC50) of over 7.00. Further, the negative-log IC50 (pIC50) against PI3Kα (p110α/p85α) is 6.00 to 7.00.
As for `COc1ccc(-c2nc(N3CCOCC3)c3sc(CN(C)c4ncc(C(=O)NO)cn4)cc3n2)cc1` [Compound 131, N-hydroxy-2-(((2-(4-methoxyphenyl)-4-morpholinothieno[3,2-d]pyrimidin-6-yl)methyl)(methyl)amino)pyrimidine-5-carboxamide], the melting point is 247 °C (dec.). In series [1], this molecule had a negative-log IC50 (pIC50) of over 7.00. On PI3Kα (p110α/p85α), this molecule showed a pIC50 of under 5.00.
For `COc1ccc(-c2nc(N3CCOCC3)c3sc(NCCCCCC(=O)NO)cc3n2)cn1` [Compound 233, 6-[2-(6-Methoxy-pyridin-3-yl)-4-morpholin-4-yl-thieno[3,2-d]pyrimidin-6-ylamino]-hexanoic acid hydroxyamide], the melting point was 125 to 130 °C. The molecule also showed a pIC50 in series [1] of over 7.00. Besides, on PI3Kα (p110α/p85α), the pIC50 is over 7.00.
In turn, `CN(Cc1cc2nc(-c3ccc(CO)cc3)nc(N3CCOCC3)c2s1)c1ncc(C(=O)NO)cn1` [Compound 140, N-hydroxy-2-(((2-(4-(hydroxymethyl)phenyl)-4-morpholinothieno[3,2-d]pyrimidin-6-yl)methyl)(methyl)amino)pyrimidine-5-carboxamide] came in with a melting point of 218 to 223 °C. Further, in series [1], the pIC50 is over 7.00. Besides, the pIC50 at PI3Kα (p110α/p85α) is 6.00 to 7.00.

The values are drawn from US20130102595A1 (Curis, Inc., priority 2011, published 2013).
